Measured values from patent publication US11084790B2, “Insoluble complex or solvate thereof, pharmaceutical composition and use thereof” (Fruithy Holdings Limited, priority 2017, dated 2021).
≈ marks a conversion by molar mass, not a printed value.

Experiment: Test on the solubility in a simulated body fluid
Type: physicochemical
Details: for Compound concentration: Pamoic acid / Compound concentration: Ropivacaine / solubility / Compound concentration: Bupivacaine / Compound concentration: DBTA / Compound concentration: DTTA / Compound concentration: naphthol phosphate: 0.01 M PBS pH 7.4, 37° C.; for stability of the suspension (ratio between acid radical and basic group) / solubility / solubility at 24 h: simulated body fluid; for solubility at 24 h: phosphate buffered saline (simulated body fluid), 37 °C, aqueous buffer, thermodynamic from solid, 0.01 M PBS at pH 7.4, read-out: Saturated solubility
Method: Test on the Solubility in a Simulated Body Fluid
The concentration of the drug dissolved in the PBS buffered solution was determined with an HPLC-a method.

CCCN1CCCC[C@H]1C(=O)Nc1c(C)cccc1C.O=C(O)c1cc2ccccc2c(Cc2c(O)c(C(=O)O)cc3ccccc23)c1O [Preparation Example 9, mono(ropivacaine) pamoate]
Compound concentration: Pamoic acid (5 min): 345.9 µM | Compound concentration: Ropivacaine (5 min): 347.9 µM | Compound concentration: Pamoic acid (15 min): 601.5 µM | Compound concentration: Ropivacaine (15 min): 602.6 µM | Compound concentration: Pamoic acid (30 min): 880.3 µM | Compound concentration: Ropivacaine (30 min): 887 µM | Compound concentration: Pamoic acid (1 h): 1280.8 µM | Compound concentration: Ropivacaine (1 h): 1285.6 µM | Compound concentration: Pamoic acid (2 h): 1668.4 µM | Compound concentration: Ropivacaine (2 h): 1660.8 µM | Compound concentration: Pamoic acid (6 h): 1953.9 µM | Compound concentration: Ropivacaine (6 h): 1944 µM | Compound concentration: Pamoic acid (24 h): 2052.3 µM | Compound concentration: Ropivacaine (24 h): 1972 µM | stability of the suspension (ratio between acid radical and basic group): stable | solubility: about 2.0 mM

CCCCN1CCCCC1C(=O)Nc1c(C)cccc1C.CCCCN1CCCCC1C(=O)Nc1c(C)cccc1C.O=C(O)c1cc2ccccc2c(Cc2c(O)c(C(=O)O)cc3ccccc23)c1O [Preparation Example 29, bis(bupivacaine) pamoate]
Compound concentration: Bupivacaine (5 min): 159.8 µM | Compound concentration: Pamoic acid (5 min): 78.2 µM | Compound concentration: Bupivacaine (15 min): 196.9 µM | Compound concentration: Pamoic acid (15 min): 97.3 µM | Compound concentration: Bupivacaine (30 min): 241.5 µM | Compound concentration: Pamoic acid (30 min): 122.1 µM | Compound concentration: Bupivacaine (1 h): 269.9 µM | Compound concentration: Pamoic acid (1 h): 119.5 µM | Compound concentration: Bupivacaine (2 h): 271.3 µM | Compound concentration: Pamoic acid (2 h): 140 µM | Compound concentration: Bupivacaine (6 h): 275.1 µM | Compound concentration: Pamoic acid (6 h): 145 µM | Compound concentration: Bupivacaine (24 h): 305 µM | Compound concentration: Pamoic acid (24 h): 151.6 µM | stability of the suspension (ratio between acid radical and basic group): stable | solubility: about 0.3 mM

CC1(C)C2CCC1(CS(=O)(=O)O)C(=O)C2.CCCCN1CCCCC1C(=O)Nc1c(C)cccc1C (stereo not shown) [Preparation Example 8, bupivacaine camphorsulfonate]
Compound concentration: Bupivacaine (5 min): 47678.3 µM | Compound concentration: Bupivacaine (15 min): 57125.4 µM | Compound concentration: Bupivacaine (30 min): 68314.9 µM | Compound concentration: Bupivacaine (1 h): 68195.8 µM | Compound concentration: Bupivacaine (2 h): 68902.6 µM | Compound concentration: Bupivacaine (6 h): 71253.9 µM | Compound concentration: Bupivacaine (24 h): 66020 µM

CCCCN1CCCCC1C(=O)Nc1c(C)cccc1C.CCCCN1CCCCC1C(=O)Nc1c(C)cccc1C.O=C(OC(C(=O)O)C(OC(=O)c1ccccc1)C(=O)O)c1ccccc1 (stereo not shown) [Preparation Example 2, bis(bupivacaine) dibenzoyl tartarate]
Compound concentration: Bupivacaine (5 min): 819 µM | Compound concentration: DBTA (5 min): 769.6 µM | Compound concentration: Bupivacaine (15 min): 1593.7 µM | Compound concentration: DBTA (15 min): 1550.4 µM | Compound concentration: Bupivacaine (30 min): 2133.2 µM | Compound concentration: DBTA (30 min): 2183.8 µM | Compound concentration: Bupivacaine (1 h): 2848.7 µM | Compound concentration: DBTA (1 h): 3035.9 µM | Compound concentration: Bupivacaine (2 h): 3565.4 µM | Compound concentration: DBTA (2 h): 3953.3 µM | Compound concentration: Bupivacaine (6 h): 6577 µM | Compound concentration: DBTA (6 h): 6336.3 µM | Compound concentration: Bupivacaine (24 h): 6389.6 µM | Compound concentration: DBTA (24 h): 6122.7 µM

CCCN1CCCC[C@H]1C(=O)Nc1c(C)cccc1C.Cc1ccc(C(=O)OC(C(=O)O)C(OC(=O)c2ccc(C)cc2)C(=O)O)cc1 (stereo not shown) [Preparation Example 5, mono(ropivacaine) di-p-toluoyl tartarate]
Compound concentration: DTTA (5 min): 6676.8 µM | Compound concentration: Ropivacaine (5 min): 7268.7 µM | Compound concentration: DTTA (15 min): 6612.8 µM | Compound concentration: Ropivacaine (15 min): 7215.5 µM | Compound concentration: DTTA (30 min): 6704 µM | Compound concentration: Ropivacaine (30 min): 7287.2 µM | Compound concentration: DTTA (1 h): 6752.1 µM | Compound concentration: Ropivacaine (1 h): 7343.7 µM | Compound concentration: DTTA (2 h): 6988 µM | Compound concentration: Ropivacaine (2 h): 7630.4 µM | Compound concentration: DTTA (6 h): 6971.8 µM | Compound concentration: Ropivacaine (6 h): 7604.1 µM | Compound concentration: DTTA (24 h): 7073.8 µM | Compound concentration: Ropivacaine (24 h): 7648.9 µM

CCCCN1CCCCC1C(=O)Nc1c(C)cccc1C (stereo not shown) [Bupivacaine free base, reference compound]
solubility at 24 h: 1450 µM (≈ 418 µg/mL)

CCCCN1CCCCC1C(=O)Nc1c(C)cccc1C.O=P1(O)Oc2ccc3ccccc3c2-c2c(ccc3ccccc23)O1 [Preparation Example 7, bupivacaine binaphthol phosphate]
Compound concentration: Bupivacaine (5 min): 263 µM | Compound concentration: naphthol phosphate (5 min): 293.5 µM | Compound concentration: Bupivacaine (15 min): 271.4 µM | Compound concentration: naphthol phosphate (15 min): 275.6 µM | Compound concentration: Bupivacaine (30 min): 310.5 µM | Compound concentration: naphthol phosphate (30 min): 264.3 µM | Compound concentration: Bupivacaine (1 h): 280.7 µM | Compound concentration: naphthol phosphate (1 h): 263.3 µM | Compound concentration: Bupivacaine (2 h): 314.8 µM | Compound concentration: naphthol phosphate (2 h): 278.9 µM | Compound concentration: Bupivacaine (6 h): 317.7 µM | Compound concentration: naphthol phosphate (6 h): 288.4 µM | Compound concentration: Bupivacaine (24 h): 268.4 µM | Compound concentration: naphthol phosphate (24 h): 264.6 µM | stability of the suspension (ratio between acid radical and basic group): stable | solubility: about 0.3 mM

CCCCN1CCCCC1C(=O)Nc1c(C)cccc1C.CCCCN1CCCCC1C(=O)Nc1c(C)cccc1C.O=C(O)c1cc2ccccc2c(Cc2c(O)c(C(=O)O)cc3ccccc23)c1O [Preparation Example 30, bis(bupivacaine) pamoate]
Compound concentration: Bupivacaine (5 min): 142.3 µM | Compound concentration: Pamoic acid (5 min): 75.7 µM | Compound concentration: Bupivacaine (15 min): 218.8 µM | Compound concentration: Pamoic acid (15 min): 111.6 µM | Compound concentration: Bupivacaine (30 min): 233.7 µM | Compound concentration: Pamoic acid (30 min): 128.5 µM | Compound concentration: Bupivacaine (1 h): 280.5 µM | Compound concentration: Pamoic acid (1 h): 135.6 µM | Compound concentration: Bupivacaine (2 h): 277.3 µM | Compound concentration: Pamoic acid (2 h): 130.8 µM | Compound concentration: Bupivacaine (6 h): 287.2 µM | Compound concentration: Pamoic acid (6 h): 137.9 µM | Compound concentration: Bupivacaine (24 h): 286.9 µM | Compound concentration: Pamoic acid (24 h): 140.2 µM | stability of the suspension (ratio between acid radical and basic group): stable | solubility: about 0.3 mM

CCCCN1CCCCC1C(=O)Nc1c(C)cccc1C.CCCCN1CCCCC1C(=O)Nc1c(C)cccc1C.Cc1ccc(C(=O)OC(C(=O)O)C(OC(=O)c2ccc(C)cc2)C(=O)O)cc1 (stereo not shown) [Preparation Example 4, bis(bupivacaine) di-p-toluoyl tartarate]
Compound concentration: Bupivacaine (5 min): 11389.4 µM | Compound concentration: DTTA (5 min): 5161 µM | Compound concentration: Bupivacaine (15 min): 12009.1 µM | Compound concentration: DTTA (15 min): 5399.5 µM | Compound concentration: Bupivacaine (30 min): 11426.9 µM | Compound concentration: DTTA (30 min): 5135 µM | Compound concentration: Bupivacaine (1 h): 11256.7 µM | Compound concentration: DTTA (1 h): 5084.8 µM | Compound concentration: Bupivacaine (2 h): 11278.1 µM | Compound concentration: DTTA (2 h): 5068.3 µM | Compound concentration: Bupivacaine (6 h): 11851.8 µM | Compound concentration: DTTA (6 h): 5312 µM | Compound concentration: Bupivacaine (24 h): 11693.3 µM | Compound concentration: DTTA (24 h): 5219.7 µM

CCCN1CCCC[C@H]1C(=O)Nc1c(C)cccc1C [Ropivacaine free base, reference compound]
solubility at 24 h: 1360 µM (≈ 373 µg/mL)

CCCCN1CCCCC1C(=O)Nc1c(C)cccc1C.CCCCN1CCCCC1C(=O)Nc1c(C)cccc1C.O=C(O)c1cc2ccccc2c(Cc2c(O)c(C(=O)O)cc3ccccc23)c1O [Preparation Example 12, bis(bupivacaine) pamoate]
Compound concentration: Bupivacaine (5 min): 147.5 µM | Compound concentration: Pamoic acid (5 min): 73.6 µM | Compound concentration: Bupivacaine (15 min): 210.1 µM | Compound concentration: Pamoic acid (15 min): 107 µM | Compound concentration: Bupivacaine (30 min): 247.4 µM | Compound concentration: Pamoic acid (30 min): 127.4 µM | Compound concentration: Bupivacaine (1 h): 267.2 µM | Compound concentration: Pamoic acid (1 h): 137.5 µM | Compound concentration: Bupivacaine (2 h): 280.2 µM | Compound concentration: Pamoic acid (2 h): 140 µM | Compound concentration: Bupivacaine (6 h): 290.8 µM | Compound concentration: Pamoic acid (6 h): 149.7 µM | Compound concentration: Bupivacaine (24 h): 284.8 µM | Compound concentration: Pamoic acid (24 h): 142.9 µM | stability of the suspension (ratio between acid radical and basic group): stable | solubility: about 0.3 mM

CCCCN1CCCCC1C(=O)Nc1c(C)cccc1C.O=C(OC(C(=O)O)C(OC(=O)c1ccccc1)C(=O)O)c1ccccc1 (stereo not shown) [Preparation Example 1, mono(bupivacaine) dibenzoyl tartarate]
Compound concentration: Bupivacaine (5 min): 4884.6 µM | Compound concentration: DBTA (5 min): 4992 µM | Compound concentration: Bupivacaine (15 min): 6987.2 µM | Compound concentration: DBTA (15 min): 7107.7 µM | Compound concentration: Bupivacaine (30 min): 7755.2 µM | Compound concentration: DBTA (30 min): 7866.6 µM | Compound concentration: Bupivacaine (1 h): 8196 µM | Compound concentration: DBTA (1 h): 8284.6 µM | Compound concentration: Bupivacaine (2 h): 7911.7 µM | Compound concentration: DBTA (2 h): 8015.5 µM | Compound concentration: Bupivacaine (6 h): 7006.1 µM | Compound concentration: DBTA (6 h): 7590.5 µM | Compound concentration: Bupivacaine (24 h): 5767.9 µM | Compound concentration: DBTA (24 h): 7303.7 µM
